# Test results: patent US20260182568A1, “DISINFECTANT AND PRESERVATIVE COMPOSITIONS” (BJBIOCHEM CO., LTD., priority 2023, published 2026)
# Experiments:
# Malassezia restricta = experiment: Sterilizing power (broth dilution MIC) of anti-dandruff hair care (antifungal) compositions
# Malassezia furfur = experiment: as above
# Malassezia globosa = experiment: as above
# S. aureus = experiment: Broth dilution MIC test of antimicrobial and preservative compositions; assay type: cell-based, Staphylococcus aureus; details: % only in method b353
# Protocol: (§1) C. albicans was inoculated into Sabouraud dextrose broth and cultured at 25° C. for 24 hours. […] The liquid media used for E. coli, S. aureus, and P. aeruginosa (bacteria) were tryptic soy broth, and the liquid media used for C. albicans, and A. brasiliensis (fungi) were Sabouraud dextrose broth.
# P. aeruginosa = experiment: as above; assay type: cell-based, Pseudomonas aeruginosa; details: % only in method b353
# Protocol: as §1
# E. coli = experiment: as above; assay type: cell-based, Escherichia coli; details: % only in method b353
# Protocol: as §1
# C. albicans = experiment: as above; assay type: cell-based, Candida albicans; details: % only in method b353
# Protocol: as §1
# A. brasiliensis = experiment: as above; assay type: cell-based, Aspergillus brasiliensis; details: % only in method b353
# Protocol: as §1
# Pseudomonas aeruginosa = experiment: Disk diffusion antibacterial test; assay type: cell-based
# Candida albicans = experiment: Disk diffusion antibacterial test; assay type: cell-based
# Escherichia coli = experiment: Disk diffusion antibacterial test; assay type: cell-based
# Staphylococcus aureus = experiment: Disk diffusion antibacterial test; assay type: cell-based
# Aspergillus brasiliensis = experiment: Disk diffusion antibacterial test; assay type: cell-based
# [1] = Formula 1 mixed with climbazole (CB) at mixing ratio (%), broth dilution
# [2] = Formula 1 mixed with zinc pyrithione (ZPT) at mixing ratio (%), broth dilution
# [3] = Test A (Formula 1 / Formula 2), Tables 2-3
# [4] = Test B (Formula 1 / Formula 3), Tables 16-17
# [5] = comparison over mixing ratios of Formula 1 with PO, ZPT or CB
compound,measurement,setting,value
CC(C)(C)C(=O)C(Oc1ccc(Cl)cc1)n1ccnc1 (stereo not drawn) [climbazole],MIC,Malassezia restricta; [1],4 µg/mL
same,MIC,Malassezia furfur; [1],20 µg/mL
same,MIC,Malassezia globosa; [1],1 µg/mL
zinc pyrithione,MIC,Malassezia restricta; [2],4 µg/mL
same,MIC,Malassezia furfur; [2],7 µg/mL
same,MIC,Malassezia globosa; [2],1 µg/mL
Cc1cc(CC(C)CC(C)(C)C)n(O)c(=O)c1 (stereo not drawn) [piroctone olamine],MIC,Malassezia restricta; Malassezia restricta,18 µg/mL
same,MIC,Malassezia furfur; Malassezia furfur,30 µg/mL
same,MIC,Malassezia globosa; Malassezia globosa,4 µg/mL
"CCCCCCCCCCCCN(CC(O)CO)CC(O)CO (stereo not drawn) [Comparative Example1, 3,3′-(dodecylimino)bispropane-1,2-diol]","minimum inhibitory concentration (MIC), S. Aureus",S. aureus; [3],0.1%
same,"minimum inhibitory concentration (MIC), S. Aureus",S. aureus; [4],0.1%
same,"minimum inhibitory concentration (MIC), P. Aeruginosa",P. aeruginosa; [3],0.25%
same,"minimum inhibitory concentration (MIC), P. Aeruginosa",P. aeruginosa; [4],0.25%
same,"minimum inhibitory concentration (MIC), E. coli",E. coli; [3],0.1%
same,"minimum inhibitory concentration (MIC), E. coli",E. coli; [4],0.1%
same,"minimum inhibitory concentration (MIC), C. albicans",C. albicans; [3],0.05%
same,"minimum inhibitory concentration (MIC), C. albicans",C. albicans; [4],0.05%
same,"minimum inhibitory concentration (MIC), A. brasiliensis",A. brasiliensis; [3],0.1%
same,"minimum inhibitory concentration (MIC), A. brasiliensis",A. brasiliensis; [4],0.1%
"CCCCCCCCCCCCN(CC(O)CO)CC(O)CO (stereo not drawn) [3,3′-(dodecylimino)bispropane-1,2-diol]","clear zone where strain growth was inhibited, P. aeruginosa","Pseudomonas aeruginosa; 50 μl on disk, 1st repetition",1 mm
same,"clear zone where strain growth was inhibited, P. aeruginosa","Pseudomonas aeruginosa; 50 μl on disk, 2nd repetition",1.5 mm
same,"clear zone where strain growth was inhibited, P. aeruginosa","Pseudomonas aeruginosa; 50 μl on disk, 3rd repetition",1 mm
same,"clear zone where strain growth was inhibited, P. aeruginosa",Pseudomonas aeruginosa; Mean of three repetitions,1.2 mm
same,"clear zone where strain growth was inhibited, C. albicans","Candida albicans; 50 μl on disk, 1st repetition",5 mm
same,"clear zone where strain growth was inhibited, C. albicans","Candida albicans; 50 μl on disk, 2nd repetition",5 mm
same,"clear zone where strain growth was inhibited, C. albicans","Candida albicans; 50 μl on disk, 3rd repetition",6 mm
same,"clear zone where strain growth was inhibited, C. albicans",Candida albicans; Mean of three repetitions,5.3 mm
same,"clear zone where strain growth was inhibited, E. coli","Escherichia coli; 50 μl on disk, 1st repetition",2.5 mm
same,"clear zone where strain growth was inhibited, E. coli","Escherichia coli; 50 μl on disk, 2nd repetition",2.5 mm
same,"clear zone where strain growth was inhibited, E. coli","Escherichia coli; 50 μl on disk, 3rd repetition",3 mm
same,"clear zone where strain growth was inhibited, E. coli",Escherichia coli; Mean of three repetitions,2.6 mm
same,"clear zone where strain growth was inhibited, S. aureus","Staphylococcus aureus; 50 μl on disk, 1st repetition",2 mm
same,"clear zone where strain growth was inhibited, S. aureus","Staphylococcus aureus; 50 μl on disk, 2nd repetition",3 mm
same,"clear zone where strain growth was inhibited, S. aureus","Staphylococcus aureus; 50 μl on disk, 3rd repetition",2.5 mm
same,"clear zone where strain growth was inhibited, S. aureus",Staphylococcus aureus; Mean of three repetitions,2.5 mm
same,"clear zone where strain growth was inhibited, A. brasiliensis","Aspergillus brasiliensis; 50 μl on disk, 1st repetition",1.5 mm
same,"clear zone where strain growth was inhibited, A. brasiliensis","Aspergillus brasiliensis; 50 μl on disk, 2nd repetition",2 mm
same,"clear zone where strain growth was inhibited, A. brasiliensis","Aspergillus brasiliensis; 50 μl on disk, 3rd repetition",2 mm
same,"clear zone where strain growth was inhibited, A. brasiliensis",Aspergillus brasiliensis; Mean of three repetitions,1.8 mm
same,sterilizing effect against Malassezia restricta (in words),Malassezia restricta; [5],lowest sterilizing effect
same,sterilizing effect against Malassezia furfur (in words),Malassezia furfur; [5],lowest sterilizing effect
same,sterilizing effect against Malassezia globosa (in words),Malassezia globosa; [5],lowest sterilizing effect
